The record followed here is ChEMBL document CHEMBL5108079, “Therapeutic Activity of the Lansoprazole Metabolite 5-Hydroxy Lansoprazole Sulfide in Triple-Negative Breast Cancer by Inhibiting the Enoyl Reductase of Fatty Acid Synthase” (J Med Chem, 2022).

Structures are written as SMILES. Calls of active or inactive are those of the source. The rule behind the calls is not given here.

Data set [1] in a line: Induction of DNA damage in human KTB39 cells assessed as increase in gamma-H2AX level at IC50 concentration by Western blot analysis. It counts as toxicity, cell-based.
The subject of data set [2] is MDA-MB-231. Briefly: Inhibition of DNA repair activity in human MDA-MB-231 cells assessed as inhibition of NHEJ activity measured every 12 hrs for 72 hrs by luciferase based host cell reactivation assay. It counts as functional.
The subject of data set [3] is MDA-MB-468. Briefly: Induction of DNA damage in human MDA-MB-468 cells assessed as inhibition of PARP-1 expression incubated for 72 hrs by Western blot analysis. It counts as functional, cell-based. The note with it: dose 2.5-10 µM, DDE = dose-dependent effect.
Data set [4] concerns MDA-MB-468. In words: Induction of DNA damage in human MDA-MB-468 cells nucleus assessed as increase in gamma-H2AX punctate staining at 20 uM by DAPI staining based confocal microscopic imaging analysis. It counts as functional, cell-based.
The subject of data set [5] is MDA-MB-468. Briefly: Inhibition of DNA repair activity in human MDA-MB-468 cells assessed as inhibition of NHEJ activity measured every 12 hrs for 72 hrs by luciferase based host cell reactivation assay. It counts as functional.
Data set [6] in a line: Induction of DNA damage in human KTB34 cells assessed as increase in gamma-H2AX level at IC50 concentration by Western blot analysis. It counts as toxicity, cell-based.
For data set [7], the system named is MDA-MB-231. In words: Induction of DNA damage in human MDA-MB-231 cells assessed as decrease in PARP-1 mRNA level at 2.5 to 10 uM incubated for 72 hrs by RT-PCR analysis. The note with it: dose 2.5-10 µM. It counts as functional, cell-based.
Data set [8] deals with MDA-MB-231. In words: Induction of DNA damage in human MDA-MB-231 cells nucleus assessed as increase in gamma-H2AX punctate staining at 10 uM by DAPI staining based confocal microscopic imaging analysis. It counts as functional, cell-based.
The target in data set [9] is T1, Fatty acid synthase (Homo sapiens, UniProt P49327). Briefly: Inhibition of human FASN enoyl reductase activity using crotonyl CoA as substrate assessed as inhibition of substrate […] measured every 1 min for 10 mins in the presence of NADPH by fluorescence based assay.
Target sequence in this assay (P49327 whole entry): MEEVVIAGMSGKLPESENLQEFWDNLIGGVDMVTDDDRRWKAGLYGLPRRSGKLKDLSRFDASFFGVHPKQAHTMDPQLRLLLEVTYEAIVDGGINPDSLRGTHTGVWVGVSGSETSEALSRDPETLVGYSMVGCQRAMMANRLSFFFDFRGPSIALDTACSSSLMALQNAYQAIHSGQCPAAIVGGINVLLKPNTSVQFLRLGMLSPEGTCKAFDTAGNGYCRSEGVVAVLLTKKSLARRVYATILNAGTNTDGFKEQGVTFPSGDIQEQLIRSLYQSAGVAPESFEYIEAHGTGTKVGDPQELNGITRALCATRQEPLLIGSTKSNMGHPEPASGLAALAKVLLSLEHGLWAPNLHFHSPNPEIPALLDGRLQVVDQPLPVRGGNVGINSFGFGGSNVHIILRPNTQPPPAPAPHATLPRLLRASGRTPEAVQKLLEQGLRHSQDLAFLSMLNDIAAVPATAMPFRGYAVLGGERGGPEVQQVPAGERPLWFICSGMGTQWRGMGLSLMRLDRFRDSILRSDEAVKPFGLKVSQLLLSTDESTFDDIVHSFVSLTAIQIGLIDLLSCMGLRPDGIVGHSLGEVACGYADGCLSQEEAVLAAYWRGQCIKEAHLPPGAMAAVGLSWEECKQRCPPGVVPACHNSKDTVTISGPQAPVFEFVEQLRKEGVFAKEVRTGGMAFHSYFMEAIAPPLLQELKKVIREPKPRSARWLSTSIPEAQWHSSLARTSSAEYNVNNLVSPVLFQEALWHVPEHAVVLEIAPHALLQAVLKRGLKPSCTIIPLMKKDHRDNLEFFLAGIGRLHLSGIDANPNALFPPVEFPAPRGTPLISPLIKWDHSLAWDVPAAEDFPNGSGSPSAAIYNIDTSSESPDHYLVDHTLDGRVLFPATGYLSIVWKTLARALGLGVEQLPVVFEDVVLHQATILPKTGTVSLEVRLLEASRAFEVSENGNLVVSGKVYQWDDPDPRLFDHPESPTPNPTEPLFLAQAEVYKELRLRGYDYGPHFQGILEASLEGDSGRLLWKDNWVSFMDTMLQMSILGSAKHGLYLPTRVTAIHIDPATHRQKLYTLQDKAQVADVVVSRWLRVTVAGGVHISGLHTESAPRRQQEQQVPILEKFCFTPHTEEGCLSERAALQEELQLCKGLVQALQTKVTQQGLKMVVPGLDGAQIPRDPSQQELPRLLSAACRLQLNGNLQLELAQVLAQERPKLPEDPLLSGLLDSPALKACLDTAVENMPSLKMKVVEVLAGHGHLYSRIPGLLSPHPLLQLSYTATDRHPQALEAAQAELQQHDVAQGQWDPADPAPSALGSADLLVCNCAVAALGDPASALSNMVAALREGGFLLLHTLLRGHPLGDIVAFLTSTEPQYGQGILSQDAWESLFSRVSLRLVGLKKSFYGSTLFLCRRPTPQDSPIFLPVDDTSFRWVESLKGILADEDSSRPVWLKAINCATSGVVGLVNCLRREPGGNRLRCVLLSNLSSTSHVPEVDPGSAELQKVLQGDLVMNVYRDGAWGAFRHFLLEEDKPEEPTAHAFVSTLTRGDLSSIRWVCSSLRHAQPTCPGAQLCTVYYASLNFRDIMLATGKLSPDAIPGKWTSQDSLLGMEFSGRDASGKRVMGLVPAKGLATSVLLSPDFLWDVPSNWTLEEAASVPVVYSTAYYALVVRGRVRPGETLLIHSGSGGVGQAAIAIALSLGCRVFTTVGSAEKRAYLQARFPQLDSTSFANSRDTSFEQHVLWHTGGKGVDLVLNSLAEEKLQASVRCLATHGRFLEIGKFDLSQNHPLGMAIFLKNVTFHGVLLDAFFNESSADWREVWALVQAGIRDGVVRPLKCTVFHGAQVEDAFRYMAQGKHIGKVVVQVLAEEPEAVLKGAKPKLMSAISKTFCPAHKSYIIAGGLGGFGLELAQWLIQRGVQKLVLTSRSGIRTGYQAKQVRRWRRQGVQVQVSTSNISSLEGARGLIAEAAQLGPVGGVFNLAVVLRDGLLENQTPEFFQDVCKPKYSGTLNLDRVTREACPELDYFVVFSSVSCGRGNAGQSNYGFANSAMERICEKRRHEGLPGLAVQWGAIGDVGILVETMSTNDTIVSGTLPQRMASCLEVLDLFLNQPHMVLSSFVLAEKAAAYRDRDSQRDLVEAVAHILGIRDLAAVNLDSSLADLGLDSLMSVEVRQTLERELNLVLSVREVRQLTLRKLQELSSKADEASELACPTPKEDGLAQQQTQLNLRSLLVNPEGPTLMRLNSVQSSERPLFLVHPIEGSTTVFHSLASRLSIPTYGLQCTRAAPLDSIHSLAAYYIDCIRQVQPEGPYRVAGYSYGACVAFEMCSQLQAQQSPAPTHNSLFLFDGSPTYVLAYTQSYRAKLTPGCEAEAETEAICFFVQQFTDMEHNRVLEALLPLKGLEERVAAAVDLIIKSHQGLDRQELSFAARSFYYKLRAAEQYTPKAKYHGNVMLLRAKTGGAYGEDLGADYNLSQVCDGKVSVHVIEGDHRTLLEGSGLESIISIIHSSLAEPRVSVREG
For data set [10], the system named is MDA-MB-231. Briefly: Induction of DNA damage in human MDA-MB-231 cells assessed as inhibition of PARP-1 expression incubated for 72 hrs by Western blot analysis. It counts as functional, cell-based. The note with it: dose 2.5-10 µM, DDE = dose-dependent effect.
For data set [11], the target named is T1, Fatty acid synthase. Briefly: Inhibition of FASN in human MDA-MB-231 cells overexpressing FASN assessed as decrease in endogenous FFA level at IC50 concentration incubated for 72 hrs. It counts as cell-based.
Target sequence in this assay (P49327 whole entry, looked up): as the sequence (P49327 whole entry) above
In data set [12] the test system is MDA-MB-231. Briefly: Induction of DNA damage in human MDA-MB-231 cells assessed as increase in gamma-H2AX level measured after 72 hrs by Western blot analysis. It counts as functional, cell-based. The note with it: dose 2.5-10 µM, DDE = dose-dependent effect.
Data set [13] concerns MDA-MB-468. Briefly: Induction of DNA damage in human MDA-MB-468 cells assessed as decrease in PARP-1 mRNA level at 2.5 to 10 uM incubated for 72 hrs by RT-PCR analysis. It counts as functional, cell-based. The note with it: dose 2.5-10 µM.
The test system of data set [14] is MDA-MB-468. Briefly: Induction of DNA damage in human MDA-MB-468 cells assessed as increase in gamma-H2AX level measured after 72 hrs by Western blot analysis. It counts as functional, cell-based. The note with it: dose 2.5-10 µM, DDE = dose-dependent effect.
Data set [15] in a line: Induction of DNA damage in human KTB22 cells assessed as increase in gamma-H2AX level at IC50 concentration by Western blot analysis. It counts as toxicity, cell-based.
The subject of data set [16] is MDA-MB-231. Briefly: Induction of ROS production in human MDA-MB-231 cells measured after 2 hrs by fluorescence based assay. It counts as functional, cell-based.
Data set [17] relates to MDA-MB-468. Briefly: Induction of ROS production in human MDA-MB-468 cells measured after 2 hrs by fluorescence based assay. It counts as functional, cell-based.
Data set [18] relates to HCC1937. In words: Antiproliferative activity against human HCC1937 cells assessed as reduction in cell survival incubated for 72 hrs by methylene blue cell survival assay. It counts as functional, cell-based.
Data set [19] concerns MDA-MB-468. Briefly: Induction of apoptosis in human MDA-MB-468 cells at 20 uM incubated for 72 hrs by Annexin-V/PI staining based flow cytometric analysis. It counts as functional, cell-based.
For data set [20], the system named is MDA-MB-231. In words: Induction of apoptosis in human MDA-MB-231 cells at 10 uM incubated for 72 hrs by Annexin-V/PI staining based flow cytometric analysis. It counts as functional, cell-based.
Data set [21] deals with MDA-MB-231. Briefly: Antiproliferative activity against human MDA-MB-231 cells assessed as reduction in cell survival incubated for 72 hrs by methylene blue cell survival assay. It counts as functional, cell-based.
The test system of data set [22] is MDA-MB-436. Briefly: Antiproliferative activity against human MDA-MB-436 cells assessed as reduction in cell survival incubated for 72 hrs by methylene blue cell survival assay. It counts as functional, cell-based.
Data set [23] in a line: Toxicity in NSG mouse xenografted with human MDA-MB-231 cells assessed as effect on body weight at 100 mg/kg, ip administered once daily for 22 days. It counts as organism-based. The note with it: in vivo, 528 h, time 22 day.
The subject of data set [24] is Mus musculus. Briefly: In vivo inhibition of […] in NSG mouse xenografted with human MDA-MB-231 cells assessed as reduction of FASN level in tumor at 100 mg/kg, ip administered once daily for 22 days by Western blot analysis. It counts as functional, organism-based. The note with it: time 22.0 day.
Data set [25] deals with MDA-MB-231. In words: Antitumor activity against human MDA-MB-231 cells xenografted in NSG mouse assessed as reduction in tumor wet weight at 100 mg/kg, ip administered once daily for 22 days. It counts as functional, organism-based. The note with it: time 22.0 day.
The subject of data set [26] is MDA-MB-468. In words: Antiproliferative activity against human MDA-MB-468 cells assessed as reduction in cell survival incubated for 72 hrs by methylene blue cell survival assay. It counts as functional, cell-based.
In data set [27] the test system is MDA-MB-231. In words: Effect on cell cycle distribution in human MDA-MB-231 cells assessed as accumulation of cells in sub-G1 phase at 10 uM incubated for 72 hrs by PI staining based flow cytometric analysis. It counts as functional.
Data set [28] concerns Mus musculus. Briefly: In vivo inhibition of […] in NSG mouse xenografted with human MDA-MB-231 cells assessed as reduction of FASN level in tumor at 100 mg/kg, ip administered once daily for 22 days by immunohistochemical analysis. It counts as functional, organism-based. The note with it: time 22.0 day.
Data set [29] concerns MDA-MB-468. Briefly: Induction of apoptosis in human MDA-MB-468 cells assessed as increase in cleaved caspase 3 level incubated for 72 hrs by Western blot analysis. The note with it: dose 2.5-10 µM, DDE = dose-dependent effect. It counts as functional, cell-based.
Data set [30] has as its system Mus musculus. In words: In vivo inhibition of […] in NSG mouse xenografted with human MDA-MB-231 cells assessed as increase in gamma-H2AX level in tumor at 100 mg/kg, ip administered once daily for 22 days by immunohistochemical analysis. It counts as functional, organism-based. The note with it: time 22.0 day.
Data set [31] deals with MDA-MB-231. Briefly: Induction of apoptosis in human MDA-MB-231 cells assessed as increase in cleaved caspase 3 level incubated for 72 hrs by Western blot analysis. It counts as functional, cell-based. The note with it: dose 2.5-10 µM, DDE = dose-dependent effect.
In data set [32] the test system is Mus musculus. Briefly: In vivo inhibition of […] in NSG mouse xenografted with human MDA-MB-231 cells assessed as increase in gamma-H2AX level in tumor at 100 mg/kg, ip administered once daily for 22 days by Western blot analysis. The note with it: time 22.0 day. It counts as functional, organism-based.
For data set [33], the system named is MDA-MB-231. In words: Induction of apoptosis in human MDA-MB-231 cells assessed as increase in cleaved PARP1 level incubated for 72 hrs by Western blot analysis. It counts as functional, cell-based. The note with it: dose 2.5-10 µM, DDE = dose-dependent effect.
Data set [34] has as its system Mus musculus. Briefly: In vivo inhibition of […] in NSG mouse xenografted with human MDA-MB-231 cells assessed as reduction of PARP1 level in tumor at 100 mg/kg, ip administered once daily for 22 days by Western blot analysis. It counts as functional, organism-based. The note with it: time 22.0 day.
Data set [35] relates to MDA-MB-231. In words: Antitumor activity against human MDA-MB-231 cells xenografted in NSG mouse assessed as reduction in tumor growth at 100 mg/kg, ip administered once daily for 22 days. It counts as functional, organism-based. The note with it: time 22.0 day.
Data set [36] deals with Mus musculus. In words: In vivo inhibition of […] in NSG mouse xenografted with human MDA-MB-231 cells assessed as reduction of PARP1 level in tumor at 100 mg/kg, ip administered once daily for 22 days by immunohistochemical analysis. It counts as functional, organism-based. The note with it: time 22.0 day.
In data set [37] the test system is MDA-MB-468. In words: Induction of apoptosis in human MDA-MB-468 cells assessed as increase in cleaved PARP1 level incubated for 72 hrs by Western blot analysis. It counts as functional, cell-based. The note with it: dose 2.5-10 µM, DDE = dose-dependent effect.

For `Cc1c(OCC(F)(F)F)ccnc1C[S+]([O-])c1nc2ccccc2[nH]1` (stereo unspecified) [LANSOPRAZOLE], the Activity result in [1] is “Toxic”; in [3] it was “Dde”; in [6], “Toxic”; in data set [10], “Dde”; in [12] it was “Dde”; in data set [14] it was “Dde”. Also, in data set [15], the Activity result was “Toxic”. The inhibition entry in data set [2], in data set [5] and in data set [11] was “Active” throughout. For the same compound, the outcome in data set [4], in data set [7], in [8] and in [13] was Active. In addition, the inhibitory constant (Ki) in [9] is 1.7 µM.

Regarding `CC1=CC(=O)c2ccccc2C1=O`, the result in [16] and in data set [17] was Active.

As for `Cc1c(OCC(F)(F)F)ccnc1CSc1nc2ccc(O)cc2[nH]1`, the result in [18], in [19], in data set [20], in [21], in [22] and in [4] was Active. The result in data set [25], in [26], in data set [7], in data set [27], in data set [8] and in data set [35] was Active. Moreover, the result in data set [13] was Active. Further, the Activity result in data set [1] was “Toxic”; in [23] it was “Non-Toxic”; in data set [3], “Dde”; in [6] it was “Toxic”; in data set [29], “Dde”; in data set [31], “Dde”. The Activity result was “Dde” in data set [33]; “Dde” in [10]; “Dde” in data set [12]; “Dde” in [37]; “Dde” in data set [14]; “Toxic” in data set [15]. For the same compound, the inhibition result in data set [2], in data set [24], in data set [5], in [28], in data set [30] and in data set [32] was “Active” in each case. Besides, the inhibition result in data set [34], in data set [11] and in data set [36] was “Active” throughout.
